# Assay results taken from patent US8993527B2, “Methods, compositions, and formulations for preventing or reducing adverse effects in a patient” (Pericor Therapeutics, Inc., priority 2005, dated 2015).
# How the values were obtained:
# [1] = system: patients undergoing CABG surgery; experiment: Phase 2 CABG trial: myocardial ischemia by Holter ECG and TEE; format: in vivo, human; conditions: for Isch min/h monitored: postbypass, listed as AICA riboside
# Method: The evaluation of Holter tapes and echo videotapes was performed centrally by two independent blinded observers; if there was disagreement between the two, a third observer was used to “break the tie.” The same observers were used throughout the study. 5. Ischemic Events-TEE. Ischemic event data were evaluated during two time periods-pre-bypass and post-bypass, using the following analysis: a) The number of patients with ischemic events was compared across the groups using Fisher's exact test. This analysis also included pre-post changes and pre- and post-combined. b) For patients with events, analysis of the mean duration and severity of ischemia was done. […] For severity (an ordinary variable, 0-4 scale) and number of events, the nonparametric test was used. […] 6. Ischemic Events-ECG. The analysis of ischemic events indicated by ECG was done using the same methods as the echo events. The time periods analyzed were: (a) baseline (Holter start to infusion start), (b) pre-bypass (infusion start to bypass start), (c) post-bypass ([…] off to infusion end), and (d) post-treatment (infusion end to Holter end). For patients with events, the following variables were analyzed: mean duration, maximum ST change and area under the curve of significant ST segment deviation. Analysis of variance (ANOVA) was used. 3. Myocardial Ischemia. Myocardial ischemia was measured with continuous Holter ECG and TEE. […] ECG episodes of ischemia were defined as reversible S-T depression 1 mm or greater lasting 1 minute or longer. TEE data were recorded continuously during surgery at the level of the mid-papillary muscles of the left ventricle. The wall motion of each of the four segments was graded from 0-4 (normal to […] ischemia was defined by regional wall motion worsening at least 2 grades and lasting 1 minute or longer.
# [2] = system: pentylene tetrazol-induced seizures; experiment: Suppression of pentylene tetrazol-induced seizures; format: in vivo, rat; conditions: 2000 mg/kg (total dose) intraperitoneal
# [3] = system: adenylosuccinase deficiency (autism); experiment: Therapeutic trial of oral AICA riboside in patients with adenylosuccinase deficiency (autism); format: in vivo, human
# Source text: Following authorization, therapeutic trials with AICA riboside were started in two patients with adenylosuccinase deficiency (autism). […] On Day 55, both patients were briefly readmitted for clinical, biochemical and psychiatric evaluation. […] Treatment was maintained until Day 71, and arrested at that date. […] A correct assessment of the renal loss of the nucleoside could not be obtained. […] The following parameters were found normal before and during the trial treatment with AICA riboside: red blood cell count, white blood cell count, platelet and reticulocyte counts; leukocyte differentiations; hematocrit, ionogram, Ca, phosphate, urea, creatinine, uric acid, cholesterol, lipids, SGOT, SGPT, CPK, glucose, lactate and ammonia.
# [4] = system: patients undergoing CABG surgery; format: in vivo; conditions: 0.05 mg/kg/min
# [5] = system: isoproterenol (isuprel)-induced arrhythmias; experiment: Suppression of isoproterenol (isuprel)-induced arrhythmias; format: in vivo, rat; conditions: 1000 mg/kg intraperitoneally
# Method: Five minutes later both animals were anesthetized with 330 mg/kg of chloral hydrate injected intraperitoneally. Then a single EKG lead was attached to each rat for simultaneous recording of the paired rats' electrocardiograms. To produce arrhythmia, each rat was injected subcutaneously with isuprel […].
# Beginning 30 minutes after isuprel introduction, the electrocardiograph recording paper speed was run (5 cm/sec) for 10 minutes to count the arrhythmic beats of both animals.
# mast cells = experiment: AICA riboside: mast cell leukotriene C4 release; format: cell-based, mouse; conditions: 100 μM pretreatment for six days
smiles,measurement,setting,value
"NC(=O)c1ncn([C@@H]2O[C@H](CO)[C@@H](O)[C@H]2O)c1N [1 (1-110), 5-amino-1-β-D-ribofuranosyl-imidazole-4-carboxamide]",Isch min/h monitored,[1]; High Dose,27±20 min/h
same,Isch min/h monitored,[1]; Low Dose,40±15 min/h
same,"incidence of ECG ischemia, postbypass period",[1]; high dose,11%
same,"incidence of ECG ischemia, prebypass period",[1]; high dose,3%
same,"incidence of TEE ischemia, postbypass period",[1]; high dose,24%
same,"incidence of TEE ischemia, prebypass period",[1]; high dose,6%
same,"incidence of ECG ischemia, postbypass period",[1]; low dose,22%
same,"incidence of ECG ischemia, prebypass period",[1]; low dose,3%
same,"incidence of TEE ischemia, postbypass period",[1]; low dose,27%
same,"incidence of TEE ischemia, prebypass period",[1]; low dose,15%
same,latency to seizure,[2],dramatic prolongation of latency to seizure
same,side effects,[3]; oral 5 mg/kg/day up to 2×10 mg/kg/day,No clinical or biochemical side effects were observed
same,AICA riboside in plasma and CSF,"[3]; oral, all dosages used",could not be detected
same,autistic features after two months of continuous administration,"[3]; younger patient, older patient without modification",clear-cut improvement
same,effect of low-dose acadesine on outcome,[4],no significant effect on any outcome measure
same,ventricular fibrillation,[5],complete suppression
same,Leukotriene C4 release reduced by,mast cells,75%
